Test results: ChEMBL document CHEMBL5038615, “Discovery of a cinnamyl piperidine derivative as new neddylation inhibitor for gastric cancer treatment” (Eur J Med Chem, 2021)
Calls of active or inactive are those of the source. The calls are words filed in the database; no cut-off is given here.

How the values were obtained:
[1] = tested on: HGC-27; assay: Induction of apoptosis in human HGC-27 cells assessed as early apoptotic cells at 6 uM measured after 48 hrs by AnnexinV/FITC staining based flow cytometry method (reference value: 5.8%); assay type: functional
[2] = tested on: HGC-27; assay: Induction of apoptosis in human HGC-27 cells assessed as ROS levels at 3 uM measured after 24 hrs by DCFH-DA staining based flow cytometry assay (reference value: 6.8%); assay type: functional
[3] = tested on: HGC-27; assay: Induction of apoptosis in human HGC-27 cells assessed as reduction of mitochondrial membrane potential at 9 uM measured after 24 hrs by JC-1 staining based Flowcytometry assay (reference value: 2.4%); assay type: functional; set-up: scale not given: the % may be the effect or the level left
[4] = tested on: HGC-27; assay: Induction of apoptosis in human HGC-27 cells assessed as upregulation of Bax at 3 to 9 uM measured after 24 hrs by Western blot assay; assay type: functional, cell-based; conditions: dose 3-9 µM
[5] = tested on: HGC-27; assay: Induction of apoptosis in human HGC-27cells assessed as reduction of mitochondrial membrane potential at 6 uM measured after 24 hrs by JC-1 staining based Flowcytometry assay (reference value: 2.4%); assay type: functional; set-up: scale not given: the % may be the effect or the level left
[6] = tested on: MGC-803; assay: Induction of apoptosis in human MGC-803 cells assessed as necrotic cells at 7.5 uM measured after 24 hrs by AnnexinV/FITC staining based flow cytometry method (reference value: 1.9%); assay type: functional
[7] = tested on: MGC-803; assay: Induction of apoptosis in human MGC-803 cells assessed as reduction of mitochondrial membrane potential at 2.5 uM measured after 24 hrs by JC-1 staining based Flowcytometry assay (reference value: 3.8%); assay type: functional; set-up: scale not given: the % may be the effect or the level left
[8] = tested on: HGC-27; assay: Induction of apoptosis in human HGC-27 cells assessed as upregulation of Bid at 3 to 9 uM measured after 24 hrs by Western blot assay; assay type: functional, cell-based; conditions: dose 3-9 µM
[9] = tested on: HGC-27; assay: Induction of apoptosis in human HGC-27 cells assessed as necrotic cells at 3 uM measured after 24 hrs by AnnexinV/FITC staining based flow cytometry method (reference value: 1.2%); assay type: functional
[10] = tested on: HGC-27; assay: Induction of apoptosis in human HGC-27 cells assessed as ROS levels at 9 uM measured after 24 hrs by DCFH-DA staining based flow cytometry assay (reference value: 6.8%); assay type: functional
[11] = tested on: MGC-803; assay: Induction of apoptosis in human MGC-803 cells assessed as ROS levels at 5 uM measured after 24 hrs by DCFH-DA staining based flow cytometry assay (reference value: 3.3%); assay type: functional
[12] = tested on: MGC-803; assay: Cell cycle arrest in human MGC-803 cells assessed as accumulation of cells at S phase at 7.5 uM measured after 24 hrs by Flowcytometry assay (reference value: 36.51%); assay type: functional
[13] = tested on: HGC-27; assay: Inhibition of cell migration in human HGC-27 cells at 5 uM measured after 48 hrs by wound healing assay based inverted microscopic analysis; assay type: functional
[14] = biological target: T1, NEDD8-activating enzyme E1 regulatory subunit (Homo sapiens) (UniProt Q13564); assay: Inhibition of NAE-mediated neddylation in human MGC-803 cells assessed as cullin5-Nedd8 adduct formation at 2.5 to 7.5 uM measured after 24 hrs by western blot assay; assay type: cell-based; conditions: dose 2.5-7.5 µM
T1 sequence (whole entry): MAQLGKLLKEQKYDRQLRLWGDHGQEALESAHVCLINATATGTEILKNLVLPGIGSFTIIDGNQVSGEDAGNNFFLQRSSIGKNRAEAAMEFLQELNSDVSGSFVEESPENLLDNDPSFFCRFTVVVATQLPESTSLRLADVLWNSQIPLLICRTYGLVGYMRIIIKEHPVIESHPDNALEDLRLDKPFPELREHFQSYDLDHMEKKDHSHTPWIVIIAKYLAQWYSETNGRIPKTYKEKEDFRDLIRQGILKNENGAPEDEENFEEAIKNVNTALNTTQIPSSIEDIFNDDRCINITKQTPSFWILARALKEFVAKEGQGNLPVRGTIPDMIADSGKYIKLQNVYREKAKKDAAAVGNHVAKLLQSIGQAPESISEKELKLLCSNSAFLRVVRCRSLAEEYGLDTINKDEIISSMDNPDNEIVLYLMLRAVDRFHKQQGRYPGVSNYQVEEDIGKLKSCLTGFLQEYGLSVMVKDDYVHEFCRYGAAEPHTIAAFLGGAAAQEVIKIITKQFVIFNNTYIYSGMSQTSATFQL

[15] = tested on: HGC-27; assay: Antiproliferative activity against human HGC-27 cells assessed as inhibition of cell proliferation measured after 72 hrs by MTT assay; assay type: functional, cell-based; conditions: HGC-27, 72 h
[16] = tested on: MGC-803; assay: Induction of apoptosis in human MGC-803 cells assessed as viable cells at 7.5 uM measured after 48 hrs by AnnexinV/FITC staining based flow cytometry method (reference value: 97.4%); assay type: functional; conditions: read-out: Activity
[17] = tested on: HGC-27; assay: Induction of apoptosis in human HGC-27 cells assessed as late apoptotic cells at 9 uM measured after 24 hrs by AnnexinV/FITC staining based flow cytometry method (reference value: 2.4%); assay type: functional
[18] = tested on: MGC-803; assay: Induction of apoptosis in human MGC-803 cells assessed as down-regulation of Bcl2 at 2.5 to 7.5 uM measured after 24 hrs by Western blot assay; assay type: functional, cell-based; conditions: dose 2.5-7.5 µM
[19] = tested on: MGC-803; assay: Induction of apoptosis in human MGC-803 cells assessed as late apoptotic cells at 2.5 uM measured after 24 hrs by AnnexinV/FITC staining based flow cytometry method (reference value: 2%); assay type: functional
[20] = tested on: HGC-27; assay: Induction of apoptosis in human HGC-27 cells assessed as viable cells at 6 uM measured after 24 hrs by AnnexinV/FITC staining based flow cytometry method (reference value: 95.7%); assay type: functional; conditions: read-out: Activity

For `CCCCCc1ccc(NC(=O)C2CCN(C/C=C/c3ccccc3)CC2)cc1`, the Activity [1] was 32.2%, the Activity [2] was 11.4% and the Activity [3] was 58%. For the same compound, the Activity [4] was “Dose-Dependent Effect”, the Activity [5] was 45.3% and the Activity [6] was 6.9%. For the same compound, the Activity [7] was 4%, the Activity [8] was “Dose-Dependent Effect” and the Activity [9] was 0.4%. It also gave an Activity [10] of 25.7%, an Activity [11] of 5.4% and an Activity [12] of 33.6%. The inhibition at 5 µM [13] was 60%, the inhibition [14] was “Active” and the IC50 [15] was 3.17 µM. The viability at 7.5 µM [16] was 0.4%, the Activity [17] was 74% and the Activity [18] was “Dose-Dependent Effect”. The Activity [19] was 3.6% and the viability at 6 µM [20] was 25.4%.
